# Laboratory results: ChEMBL document CHEMBL1201862, “PubChem BioAssay data set” (2004)
#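 Compound exposure: 48 hours, 5 concentrations, 96-well plates. Abbreviation: GI50, concentration required for 50% inhibition of growth.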 Calls of active or inactive are those of the source. No stated cut-off is given here; in the data, active = GI50 up to about 1.1 µM and inactive = higher.
# What was measured:
# Experiment in all cases: DTP human tumour cell line panel, 48 h
# MCF7 = system: MCF7
# MDA-N = system: MDA-N
# SF-295 = system: SF-295
# SK-MEL-5 = system: SK-MEL-5
# NCI-H23 = system: NCI-H23
# HCC 2998 = system: HCC 2998
# IGROV-1 = system: IGROV-1
# CAKI-1 = system: CAKI-1
# TK-10 = system: TK-10
# M14 = system: M14
# Hs-578T = system: Hs-578T
# CCRF-CEM = system: CCRF-CEM
# ACHN = system: ACHN
# MDA-MB-231 = system: MDA-MB-231
# MDA-MB-435 = system: MDA-MB-435
# HT-29 = system: HT-29
# MOLT-4 = system: MOLT-4
# U-251 = system: U-251
# OVCAR-5 = system: OVCAR-5
# A498 = system: A498
SMILES,GI50 (MCF7),GI50 (MDA-N),GI50 (SF-295),GI50 (SK-MEL-5),GI50 (NCI-H23),GI50 (HCC 2998),GI50 (IGROV-1),GI50 (CAKI-1),GI50 (TK-10),GI50 (M14),GI50 (Hs-578T),GI50 (CCRF-CEM),GI50 (ACHN),GI50 (MDA-MB-231),GI50 (MDA-MB-435),GI50 (HT-29),GI50 (MOLT-4),GI50 (U-251),GI50 (OVCAR-5),GI50 (A498)
O=c1oc2ccc(Cl)cc2cc1C1=CSC2=NCCN12,19.6 µM (inactive),20.8 µM (inactive),23.3 µM (inactive),19.1 µM (inactive),21.4 µM (inactive),14 µM (inactive),18.5 µM (inactive),44.5 µM (inactive),27.1 µM (inactive),31.6 µM (inactive),31.7 µM (inactive),20.4 µM (inactive),37.7 µM (inactive),20.4 µM (inactive),21.5 µM (inactive),18.8 µM (inactive),17.9 µM (inactive),23.2 µM (inactive),50.5 µM (inactive),–
CCOC(=O)c1c(NS(=O)(=O)c2ccc(C)cc2)sc2c1CCCC2,24.4 µM (inactive),42.7 µM (inactive),28 µM (inactive),31.8 µM (inactive),18.1 µM (inactive),–,27.2 µM (inactive),38.9 µM (inactive),28.4 µM (inactive),35.8 µM (inactive),26.9 µM (inactive),12.1 µM (inactive),29.9 µM (inactive),22.5 µM (inactive),–,24.2 µM (inactive),37.6 µM (inactive),–,65.3 µM (inactive),36.1 µM (inactive)
CC(=O)Nc1ncc(Sc2ccccc2C(=O)O)s1,> 100 µM (inactive),> 100 µM (inactive),> 100 µM (inactive),> 100 µM (inactive),> 100 µM (inactive),–,> 100 µM (inactive),> 100 µM (inactive),> 100 µM (inactive),> 100 µM (inactive),> 100 µM (inactive),> 100 µM (inactive),> 100 µM (inactive),> 100 µM (inactive),> 100 µM (inactive),> 100 µM (inactive),> 100 µM (inactive),> 100 µM (inactive),> 100 µM (inactive),> 100 µM (inactive)
COC(=O)[C@](NC(=O)OCc1ccccc1)([C@@H](C)Sc1ccc(C)cc1)C(F)(F)F,28.9 µM (inactive),63.5 µM (inactive),61.1 µM (inactive),18.3 µM (inactive),19.7 µM (inactive),> 100 µM (inactive),16.5 µM (inactive),57.5 µM (inactive),–,68.2 µM (inactive),44.9 µM (inactive),13.6 µM (inactive),60.3 µM (inactive),–,49.2 µM (inactive),34.7 µM (inactive),21 µM (inactive),46.9 µM (inactive),> 100 µM (inactive),> 100 µM (inactive)
C=C[C@@H](OCOCC[Si](C)(C)C)[C@@H](CC)OC(CCCOC(=O)C(C)(C)C)OC (stereo partly drawn),21.8 µM (inactive),45.1 µM (inactive),22 µM (inactive),31.3 µM (inactive),28.3 µM (inactive),–,49 µM (inactive),53.7 µM (inactive),14.9 µM (inactive),36.4 µM (inactive),27.1 µM (inactive),27.9 µM (inactive),36.7 µM (inactive),66.1 µM (inactive),38.5 µM (inactive),29.4 µM (inactive),91.2 µM (inactive),21 µM (inactive),21.7 µM (inactive),43.8 µM (inactive)
COC1CCON1C(=O)c1ccccc1 (stereo not drawn),> 10 µM (inactive),> 10 µM (inactive),> 10 µM (inactive),> 10 µM (inactive),> 10 µM (inactive),> 10 µM (inactive),> 10 µM (inactive),> 10 µM (inactive),> 10 µM (inactive),> 10 µM (inactive),> 10 µM (inactive),> 10 µM (inactive),> 10 µM (inactive),> 10 µM (inactive),> 10 µM (inactive),> 10 µM (inactive),> 10 µM (inactive),–,> 10 µM (inactive),–
CCC(=O)/C(=C\I)c1ccccc1,1.67 µM (inactive),2.85 µM (inactive),18.5 µM (inactive),–,3.71 µM (inactive),–,1.97 µM (inactive),–,15 µM (inactive),2.28 µM (inactive),5.2 µM (inactive),2.74 µM (inactive),–,1.75 µM (inactive),3.36 µM (inactive),0.931 µM (active),2.23 µM (inactive),2.23 µM (inactive),1.84 µM (inactive),18.1 µM (inactive)
COc1ccc(/C=C2\N=C(N3CCCC(CO)C3)NC2=O)cc1 (stereo not drawn),> 100 µM (inactive),> 100 µM (inactive),> 100 µM (inactive),> 100 µM (inactive),> 100 µM (inactive),> 100 µM (inactive),> 100 µM (inactive),> 100 µM (inactive),> 100 µM (inactive),> 100 µM (inactive),> 100 µM (inactive),> 100 µM (inactive),> 100 µM (inactive),> 100 µM (inactive),> 100 µM (inactive),> 100 µM (inactive),> 100 µM (inactive),> 100 µM (inactive),> 100 µM (inactive),–
CCO/C=C(\C(=O)OC)S(=O)(=O)c1ccc(C)cc1,> 100 µM (inactive),> 100 µM (inactive),> 100 µM (inactive),> 100 µM (inactive),> 100 µM (inactive),> 100 µM (inactive),> 100 µM (inactive),–,> 100 µM (inactive),> 100 µM (inactive),> 100 µM (inactive),> 100 µM (inactive),> 100 µM (inactive),> 100 µM (inactive),> 100 µM (inactive),> 100 µM (inactive),> 100 µM (inactive),> 100 µM (inactive),> 100 µM (inactive),–
N#Cc1nn(C(N)=O)c(N)c1C#N,> 100 µM (inactive),> 100 µM (inactive),> 100 µM (inactive),> 100 µM (inactive),> 100 µM (inactive),> 100 µM (inactive),> 100 µM (inactive),> 100 µM (inactive),> 100 µM (inactive),> 100 µM (inactive),> 100 µM (inactive),> 100 µM (inactive),> 100 µM (inactive),> 100 µM (inactive),–,> 100 µM (inactive),> 100 µM (inactive),> 100 µM (inactive),> 100 µM (inactive),> 100 µM (inactive)
COc1nc(=O)n(C2CC(F)C(CO)O2)cc1C (stereo not drawn),> 100 µM (inactive),> 100 µM (inactive),> 100 µM (inactive),> 100 µM (inactive),> 100 µM (inactive),> 100 µM (inactive),> 100 µM (inactive),> 100 µM (inactive),> 100 µM (inactive),> 100 µM (inactive),> 100 µM (inactive),> 100 µM (inactive),> 100 µM (inactive),> 100 µM (inactive),> 100 µM (inactive),> 100 µM (inactive),> 100 µM (inactive),> 100 µM (inactive),–,–
CCOc1cc(C=O)c2c(ccc3ccc(OC)c(OC)c32)c1OC,–,57 µM (inactive),43.8 µM (inactive),52.4 µM (inactive),64 µM (inactive),83.8 µM (inactive),89.9 µM (inactive),93.5 µM (inactive),> 100 µM (inactive),89.3 µM (inactive),37.8 µM (inactive),28.2 µM (inactive),44 µM (inactive),> 100 µM (inactive),70.6 µM (inactive),37.5 µM (inactive),13.3 µM (inactive),88.9 µM (inactive),> 100 µM (inactive),–
C=CC1(c2ccc(OC)cc2)OCCCO1,> 100 µM (inactive),> 100 µM (inactive),> 100 µM (inactive),> 100 µM (inactive),> 100 µM (inactive),> 100 µM (inactive),> 100 µM (inactive),–,> 100 µM (inactive),> 100 µM (inactive),> 100 µM (inactive),> 100 µM (inactive),> 100 µM (inactive),> 100 µM (inactive),> 100 µM (inactive),> 100 µM (inactive),> 100 µM (inactive),> 100 µM (inactive),> 100 µM (inactive),–
CC(=O)OCC1OC(OC2CC3C(C)(C)C(=O)CC[C@]3(C)C3CC[C@]45C[C@]4(CCC5[C@@H](C)CC(O)C(O)C(C)(C)O)[C@]23C)C(O)C(O)C1O (stereo partly drawn),4.78 µM (inactive),10.7 µM (inactive),14.1 µM (inactive),7.66 µM (inactive),17.5 µM (inactive),10 µM (inactive),11.1 µM (inactive),17.1 µM (inactive),14.6 µM (inactive),10.3 µM (inactive),10.4 µM (inactive),4.13 µM (inactive),16.4 µM (inactive),6.44 µM (inactive),8.99 µM (inactive),4.23 µM (inactive),3.71 µM (inactive),8.13 µM (inactive),16.7 µM (inactive),–
CN(C)c1ccccc1CN1CCCN(Cc2ccccc2N(C)C)C1c1ccncc1,15.9 µM (inactive),10.3 µM (inactive),15.3 µM (inactive),5.36 µM (inactive),18.3 µM (inactive),–,14.9 µM (inactive),16.7 µM (inactive),14.4 µM (inactive),2.33 µM (inactive),17.7 µM (inactive),–,24.8 µM (inactive),14.7 µM (inactive),6.28 µM (inactive),11.6 µM (inactive),18.1 µM (inactive),23 µM (inactive),14.1 µM (inactive),12.4 µM (inactive)
